# Experimental data reported in PubChem BioAssay AID1963435 (Molecular Pharmacology Branch, DTP, NCI, 2024).
# Tested on: PANC-1 complex spheroid growth, percent test/control
# Test: Anticancer human tumor PANC-1 cell line growth inhibition [Asc];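 also: spheroids exposed to agents for 7 days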;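 as to viability, T/C: percent viability relative to DMSO vehicle wells taken as 100%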
# Settings: for IC50: curve of first compound; for viability, T/C: stronger effect = lower value
# Protocol: Multicellular complex tumor spheroid response to apoptosis pathway targeting inhibitors Alrizomadlin, Pelcitoclax, and Dasminapant in combination with a variety of drugs and investigational agents in selected tumor cell lines
# The MDM2 inhibitor alrizomadlin, the Bcl-2/Bcl-xL inhibitor pelcitoclax, and the IAPs inhibitor dasminapant were evaluated both individually and in combination with standard of care and investigational anticancer small molecules within a complex spheroid model of solid tumors. . Complex spheroids include a stromal component modeled by human endothelial cells (HUVEC) and fibroblasts modeled by human mesenchymal stem cells (MSCs). The concentration ranges selected for each drug and investigational agent were based upon clinically achievable concentrations if the clinical Cmax of the agent was known.
# Compounds. The drugs and investigational agents: alrizomadlin (APG-115; NSC831270), pelcitoclax (APG-1252; NSC835773), dasminapant (APG-1387;NSC834197), TAK-243 (NSC785004), copanlisib (NSC809693), olaparib (NSC753686), talazoparib (NSC767125), cobimetinib (NSC 768068), eltanexor (KPT-8602, NSC 794443), abemaciclib (NSC 768073), sotorasib (NSC818433), adagrasib (NSC 831453), MRTX-1133 (NSC 836407), Iadademestat (ORY1001, NSC 806812), and RMC-4630 (NSC839698), were obtained from the NCI Developmental Therapeutics Program Chemical Repository. The FDA-approved anticancer drug set is available from the Developmental Therapeutics Program at https://dtp.cancer.gov/organization/dscb/obtaining/available plates.htm. […] The stock solutions were prepared in dimethyl sulfoxide (DMSO, Sigma-Aldrich, St. Louis, MO, cat. D2650) at 800-fold the tested concentration and stored at -70 degrees C prior to their use. All drugs and investigational agents were tested over a range starting from a high concentration at or near the clinical Cmax and decreasing in half-log increments. If the clinical Cmax for an agent had not been determined, the highest concentration tested was 10 microM.
# The patient-derived cancer (PDC) cell lines include five colon adenocarcinomas: 186277-243-T-J2-PDC, 616215-338-R-J1-PDC, 439559-082-T-J2-PDC, 463943-066-T-J2-PDC, and 519858-162-T-J1-PDC; three pancreatic carcinomas: 323965-272-R-J2-PDC, 521955-158-R6-J3-PDC, and 521955-158-R2-J5-PDC; two uterine sarcomas: 327498-152-R-J2-PDC and 993429-296-R-J1-PDC; two rhabdomyosarcomas: 755483-174-R-J1-PDC and 772245-204-R-J1-PDC; two soft tissue sarcomas: 126254-015-R-J1-PDC and 494315-158-R-J1-PDC; two malignant fibrous histiocytomas: 317291-083-R-J1-PDC and 596521-263-R-J1-PDC; two breast carcinomas: 171881-019-R-J1-PDC and 885512-296-R-J2-PDC; and one ovarian carcinoma: 6556581-035-R-J-PDC were obtained from the NCI PDMR, (https://pdmr.cancer.gov). The established cell lines HSSY-2 synovial sarcoma (RRID:CVCL 8719), SYO-1 synovial sarcoma (RRID:CVCL_7146), MPNST malignant peripheral neural sheath tumor were obtained from the Sloan Kettering Institute. The following established cell lines were purchased from the American Type Culture Collection (ATCC, Manassas, VA), Sor the received from the NCI repository:, PANC-1 pancreatic carcinoma (CRL-1469, RRID:CVCL_0480), OVCAR-5 ovarian carcinoma (RRID:CVCL_1628), OVCAR-8 ovarian carcinoma (RRID:CVCL_1629), , MCF-7 breast carcinoma (CRL-12584, RRID:CVCL_0031), MDA-MB-231 breast carcinoma (CRL-12532, RRID:CVCL_0062), NCI-H1876 small cell lung carcinoma (CRL-5902, RRID:CVCL_1503), NCI-H510A small cell lung carcinoma (HTB-184, RRID:CVCL_1565), NCI-H1417 (CRL-5869, RRID:CVCL_1469), and NCI-H196 small cell lung carcinoma (CRL-5823, RRID:CVCL_1509). Dr. Peter Houghton (Greehey Children's Cancer Research Institute, University of Texas Health Science Center, San Antonio, TX) provided Rh-18 rhabdomyosarcoma (RRID:CVCL_1659). Pooled donor human umbilical vein endothelial cells (HUVEC, Lonza, cat. CC-2519) and human mesenchymal stem cells (hMSC, Lonza, cat. PT-2501) were purchased from Lonza (Walkersville, MD).
# Cell Culture. […]
# [1] = second compound 0.0316 µM, first compound 0.0316 µM
# [2] = second compound 0.0316 µM, first compound 0.1 µM
# [3] = second compound 0.0316 µM, first compound 0.316 µM
# [4] = second compound 0.0316 µM, first compound 1 µM
# [5] = second compound 0.0316 µM, first compound 3.16 µM
# [6] = second compound 0.0316 µM, first compound 10 µM
# [7] = second compound 0.1 µM, first compound 0.0316 µM
# [8] = second compound 0.1 µM, first compound 0.1 µM
# [9] = second compound 0.1 µM, first compound 0.316 µM
# [10] = second compound 0.1 µM, first compound 1 µM
# [11] = second compound 0.1 µM, first compound 3.16 µM
# [12] = second compound 0.1 µM, first compound 10 µM
# [13] = second compound 0.316 µM, first compound 0.0316 µM
# [14] = second compound 0.316 µM, first compound 0.1 µM
# [15] = second compound 0.316 µM, first compound 0.316 µM
# [16] = second compound 0.316 µM, first compound 1 µM
# [17] = second compound 0.316 µM, first compound 3.16 µM
# [18] = second compound 0.316 µM, first compound 10 µM
# [19] = second compound 1 µM, first compound 0.0316 µM
# [20] = second compound 1 µM, first compound 0.1 µM
# [21] = second compound 1 µM, first compound 0.316 µM
# [22] = second compound 1 µM, first compound 1 µM
# [23] = second compound 1 µM, first compound 3.16 µM
# [24] = second compound 1 µM, first compound 10 µM
compound,measurement,setting,value
O=C(c1cc(Cc2n[nH]c(=O)c3ccccc23)ccc1F)N1CCN(C(=O)C2CC2)CC1 + Cc1c(S(C)(=O)=O)c(-c2cc(F)cc(N3CCN(c4ccc(NS(=O)(=O)c5ccc(NC(CCN6CCC(C(=O)OCCCP(=O)(O)O)CC6)CSc6ccccc6)c(S(=O)(=O)C(F)(F)F)c5)cc4)CC3)c2)c(-c2ccc(Cl)cc2)n1C(C)C,IC50,second compound 0.0316 µM,> 10 µM
same,IC50,second compound 0.1 µM,> 10 µM
same,IC50,second compound 0.316 µM,> 10 µM
same,IC50,second compound 1 µM,> 10 µM
same,IC50,second compound 3.16 µM,> 10 µM
same,IC50,second compound 10 µM,> 10 µM
same,"viability, T/C",[1],106%
same,"viability, T/C",[2],104%
same,"viability, T/C",[3],107%
same,"viability, T/C",[4],107%
same,"viability, T/C",[5],99%
same,"viability, T/C",[6],93.7%
same,"viability, T/C",[7],89%
same,"viability, T/C",[8],107%
same,"viability, T/C",[9],107%
same,"viability, T/C",[10],103%
same,"viability, T/C",[11],117%
same,"viability, T/C",[12],95.5%
same,"viability, T/C",[13],102%
same,"viability, T/C",[14],103%
same,"viability, T/C",[15],112%
same,"viability, T/C",[16],112%
same,"viability, T/C",[17],103%
same,"viability, T/C",[18],86.1%
same,"viability, T/C",[19],112%
same,"viability, T/C",[20],101%
same,"viability, T/C",[21],105%
same,"viability, T/C",[22],111%
same,"viability, T/C",[23],111%
same,"viability, T/C",[24],86.9%
same,"viability, T/C","second compound 3.16 µM, first compound 0.0316 µM",103%
same,"viability, T/C","second compound 3.16 µM, first compound 0.1 µM",106%
same,"viability, T/C","second compound 3.16 µM, first compound 0.316 µM",106%
same,"viability, T/C","second compound 3.16 µM, first compound 1 µM",115%
same,"viability, T/C","second compound 3.16 µM, first compound 3.16 µM",119%
same,"viability, T/C","second compound 3.16 µM, first compound 10 µM",87.2%
same,"viability, T/C","second compound 10 µM, first compound 0.0316 µM",166%
same,"viability, T/C","second compound 10 µM, first compound 0.1 µM",178%
same,"viability, T/C","second compound 10 µM, first compound 0.316 µM",187%
same,"viability, T/C","second compound 10 µM, first compound 1 µM",202%
same,"viability, T/C","second compound 10 µM, first compound 3.16 µM",171%
same,"viability, T/C","second compound 10 µM, first compound 10 µM",88.9%
C=C(F)C(=O)N1CCN(c2nc(OCC3CCCN3C)nc3c2CCN(c2cccc4cccc(Cl)c24)C3)CC1CC#N (centres undefined) + CNC(C)C(=O)NC1CN(S(=O)(=O)c2cccc(S(=O)(=O)N3CCC4CCC(C(=O)NC(c5ccccc5)c5ccccc5)N4C(=O)C(NC(=O)C(C)NC)C3)c2)CCC2CCC(C(=O)NC(c3ccccc3)c3ccccc3)N2C1=O,IC50,second compound 0.00316 µM,5.52 µM
same,IC50,second compound 0.01 µM,5.29 µM
same,IC50,second compound 0.0316 µM,5.31 µM
same,IC50,second compound 0.1 µM,5.4 µM
same,IC50,second compound 0.316 µM,2.64 µM
same,IC50,second compound 1 µM,4.05 µM
same,"viability, T/C","second compound 0.00316 µM, first compound 0.0316 µM",99.5%
same,"viability, T/C","second compound 0.00316 µM, first compound 0.1 µM",99.1%
same,"viability, T/C","second compound 0.00316 µM, first compound 0.316 µM",101%
same,"viability, T/C","second compound 0.00316 µM, first compound 1 µM",92.4%
same,"viability, T/C","second compound 0.00316 µM, first compound 3.16 µM",91.6%
same,"viability, T/C","second compound 0.00316 µM, first compound 10 µM",5.56%
same,"viability, T/C","second compound 0.01 µM, first compound 0.0316 µM",95.6%
same,"viability, T/C","second compound 0.01 µM, first compound 0.1 µM",92.4%
same,"viability, T/C","second compound 0.01 µM, first compound 0.316 µM",92.4%
same,"viability, T/C","second compound 0.01 µM, first compound 1 µM",100%
same,"viability, T/C","second compound 0.01 µM, first compound 3.16 µM",85.1%
same,"viability, T/C","second compound 0.01 µM, first compound 10 µM",6.24%
same,"viability, T/C",[1],88.1%
same,"viability, T/C",[2],86.8%
same,"viability, T/C",[3],107%
same,"viability, T/C",[4],91.8%
same,"viability, T/C",[5],86.8%
same,"viability, T/C",[6],5.07%
same,"viability, T/C",[7],90.5%
same,"viability, T/C",[8],102%
same,"viability, T/C",[9],90.3%
same,"viability, T/C",[10],99.3%
same,"viability, T/C",[11],87.6%
same,"viability, T/C",[12],6.55%
same,"viability, T/C",[13],89.2%
same,"viability, T/C",[14],92.4%
same,"viability, T/C",[15],96.2%
same,"viability, T/C",[16],95.1%
same,"viability, T/C",[17],41.9%
same,"viability, T/C",[18],4.83%
same,"viability, T/C",[19],84.8%
same,"viability, T/C",[20],91.3%
same,"viability, T/C",[21],93.4%
same,"viability, T/C",[22],95.4%
same,"viability, T/C",[23],63.1%
same,"viability, T/C",[24],2.3%
